# Test results: patent publication US20200268720A1, “METHODS OF USE OF A CLASS IIA HDAC INHIBITOR” (GlaxoSmithKline LLC, priority 2016, published 2020)
# Entries after “also recorded” stand apart in the source; their conditions may differ.
# Tests used:
# [1] = system: MMTV-PyMT tumor transplants; test: Orthotopic transplant of MMTV-PyMT tumor pieces into wild-type FVBN or athymic nude Foxn1nu mice; type: in vivo, mouse
# Method: Two transplant experiments were performed where tumors were extracted from MMTV-PyMT mice and 50-100 mm^3 pieces were inserted into the 4th mammary fat pad of either wild-type FVBN mice or athymic nude Foxn1nu mice. Five days after implant mice were randomly placed into treatment groups and treated as indicated.
# tumor vasculature = test: Tumor vasculature (CD34 IHC, heavy dextran leaky vasculature experiment); type: in vivo, mouse
# Method: Tumor bearing mice that had been treated for 5 days with vehicle or TMP195 were injected with a heavy molecular weight (250 kDa; Sigma-Aldrich FD250S) dextran labeled with FITC36. After 10 minutes, mice were sacrificed. […] Tumors were removed and placed in a 4% PBS/Paraformaldehyde solution overnight, then embedded in a 20% sucrose solution overnight. Tumors were embedded in an optimum cutting temperature (OCT) solution and stored at −80° C. prior to sectioning and staining. The extent of the heavy dextran that permeated through the vasculature was visualized by immunofluorescence.
# MMTV-PyMT tumors = test: Combination with PD-1 checkpoint blockade in MMTV-PyMT mice; type: in vivo, mouse; settings: TMP195 50 mg/kg IP daily plus 250 μg anti-PD-1
# [2] = system: mouse MMTV-PyMT breast tumor cell lines; test: In vitro cell death assay (CellTiter-Glo), mouse lines; type: cell-based; settings: 0, 0.1, 1, 10 μM, 48 hours
# Method: The human breast cancer cell lines (BT20, MCF7, HCC202, T47D, MDA-MB-453 and MDA-MB-436) were obtained from ATCC. Prior to use, cell line authentication was performed by either STR profiling at Dana-Farber Cancer Institute or by Fluidigm based fingerprinting with a panel of SNPs at The Broad Institute. Cell lines were tested for mycoplasma with the MycoAlert PLUS Mycoplasma Detection Kit (Lonza LT07) according to manufacturer's instructions. Mouse breast tumor cell lines were established from 4 different MMTV-PyMT tumor bear mice. Mouse breast tumor cell line 7333 was implanted into wild-type littermates and once the tumor formed it was removed and used to generate the tumor cell line “MMTV”. All cells were plated at 1E4 cells/well in a 96 well plate. Cells were treated for 48 hours and CellTiter-Glo was used to assess cell viability.
# tumor macrophages = test: Macrophage phagocytosis and activation in tumors (IHC, immunocytochemistry, flow cytometry); type: in vivo, mouse
# Method: Tumor cells were acquired from three DMSO and three TMP195 5-day treated autochthonous MMTV-PyMT mice. CD11b^+ cells were purified using the automacs (Miltenyi) automated machine according to manufacturer's protocol. CD11b cells were labeled with a CD11b-biotin antibody (101204, BioLegend) and retrieved with ultrapure biotin beads (Miltenyi 130-105-637). Following purification, CD11b^+ cells were cytospun at 300 rpm for 5 minutes onto slides. Cells were fixed in 4% PFA/Sucrose solution for 5 minutes at RT and stored in 4° C. until ready for use. Upon experimentation, slides were permeablized with 0.03% Triton-X for 10 minutes, followed by three 5 minute rinses with 1× PBS. Samples were blocked with 10% Normal Goat Serum (NGS) in 1×PBS for 1 hour at RT. Next cells were stained for the following antibodies anti-mouse/human CD11b (101201, BioLegend), anti-mouse F4/80 (Bio-Rad, MCA497R), and Alexa Fluor 594 anti-mouse CD326 (Ep-CAM) (118222, BioLegend) at 1:100, 1:50 and 1:25 dilution in 1% NGS/1×PBS respectively overnight at 4° C. The following morning, samples were rinsed three times with 1×PBS for five minutes each, replaced with Alexa Fluor 488 goat anti-rat IgG (405418, BioLegend) at 1:200 dilution in 1% NGS, and incubated for one hour at RT. All samples were counterstained with Dapi (P36930, Life Technologies) at 1:1000 dilution in 1% NGS. Next, the samples were rinsed three times for 5 minutes each with 1×PBS. Slides were dehydrated 2× with 95% ethanol and 1× with 100% ethanol. Coverslips were mounted using Prolong Gold antifade reagent (936930, Life Technologies) and imaged with Leica SP5X: Laser Scanning Confocal microscope at 40× magnification. For analysis immunocytochemistry images were assessed by using a co-localization pipeline. In general, the pipeline identified a primary image (nucleus) and a secondary image (CD11b^+). The overlapped images were identified as a “cell”. To avoid background signal, a minimum threshold was applied for the protein of interest (CD11b, F480 and EPCAM) and only the masked objects that had fell within the given dynamic range were considered CD11b or F480 positive. Finally the overlapped image identified as “cell” was masked with the threshold image of the EPCAM. Objects identified as positive for CD11b and EPCAM or F480 and EPCAM were normalized to the number of CD11b or F480 positive cells per image, and portrayed as an average percentage. A total of 60 individual CD11b+ cells and a total of 100 individual F480^+ cells were analyzed from each treatment group.
compound,measurement,setting,value
"CC(C)(CNC(=O)c1cccc(-c2noc(C(F)(F)F)n2)c1)c1coc(-c2ccccc2)n1 [TMP195, N-(2-methyl-2-(2-phenyloxazol-4-yl)propyl)-3-(5-(trifluoromethyl)-1,2,4-oxadiazol-3-yl)benzamide]",tumor burden in wild-type FVBN recipients,"[1]; treated daily for 16 days, 50 mg/kg TMP195 vs DMSO",tumor burden was reduced
same,transplant growth in T cell deficient athymic nude (Foxn1nu) recipient mice,[1]; treated for 20 days,failed to inhibit transplant growth
same,tumor vasculature organization (CD34+ vessel structure),tumor vasculature; 5 days of TMP195 vs DMSO,more organized
same,integrity of the tumor vasculature (retention of IV heavy dextran),tumor vasculature; 5 days of TMP195 vs vehicle,significantly improved
same,"tumor burden, TMP195 added to the anti-PD-1 regimen",MMTV-PyMT tumors,significantly greater reduction in tumor burden than TMP195 alone
same,"cell viability, 6 mouse MMTV-PyMT cell lines",[2],not directly cytotoxic; also recorded: does not affect cell viability
same,apoptotic bodies within tumor macrophages (cleaved caspase 3 IHC),tumor macrophages; 5 days of TMP195,appearance of apoptotic bodies
same,intracellular EPCAM in F480+ and CD11b+ cells (phagocytosed breast tumor cells),tumor macrophages; 5 days of TMP195,co-stain as EPCAM^+
same,cells resembling tingible body macrophages (F480 IHC),tumor macrophages; 5 days of TMP195 vs vehicle,marked appearance
same,proportion of F480+ and CD11b+ cells that express CD40,tumor macrophages; 5 days of TMP195 vs vehicle,higher proportion
